These results are taken from patent publication US20190337910A1, “ALLOSTERIC MODULATORS OF NICOTINIC ACETYLCHOLINE RECEPTORS” (MERCK SHARP & DOHME CORP., priority 2016, published 2019).

Like-named read-outs stand apart in the source and are kept apart here. A value given as a limit tells only on which side of the number the result lay.

The target of the assay is T1, human α7 nAChR stably expressed in a HEK cell line (with human RIC-3) (Homo sapiens, UniProt P36544).
T1 construct: PrecisION hnAChR α7/RIC-3 (product name; no catalogue number given)
Briefly: Automated patch-clamp electrophysiology functional assay (Assay A), IonFlux HT, whole-cell population patch. It is filed as cell-based. How it is done:
The α7 nAChR positive allosteric modulator (PAM) activity of the present compounds may be tested using assays known in the art. The α7 nAChR PAMs described herein have activities in an automated patch-clamp electrophysiology functional assay as described in the examples. The assay was performed using the IonFlux HT in a whole-cell, population patch configuration. See Golden et al. Assay Drug Dev. Technol. (2011) 9:608-619. The compounds were assessed for their ability to modulate the function of the human α7 nAChR stably expressed in a HEK cell line both in the presence, and in the absence of the natural α7 agonist acetylcholine. By performing a series of such measurements at different concentrations, the effective concentration of the α7 nAChR PAMs (EC50) was determined. See Spencer et al. Assay Drug Dev. Technol. (2012) 10:313-324.
Direct activation of α7 (agonism), and potentiation of acetylcholine-evoked α7 currents was determined as follows:
Automated Patch-Clamp Electrophysiology Functional Assay (Assay A)
Automated patch-clamp electrophysiology was performed using the IonFlux HT (Fluxion Biosciences Inc., San Francisco, Calif.) in the whole-cell, population patch configuration. Test compounds were assessed for their ability to modulate the function of the α7 nicotinic acetylcholine receptor both in the presence, and in the absence of the natural α7 agonist acetylcholine. A HEK cell line stably expressing both human RIC-3 and human α7 (PrecisION hnAChR α7/RIC-3, Eurofins Pharma, St. Charles, Mo.) was cultured in 175 cm^2 triple-layer tissue culture flasks to no more than 90% confluency in DMEM/F-12 growth media supplemented with 10% heat-inactivated fetal bovine serum, 1% non-essential amino acids, 0.625 μg/mL Puromycin, and 400 μg/mL Geneticin. Immediately prior to assay, cells were detached by first aspirating growth media, rinsing with Dulbecco's phosphate buffered saline, and then adding 10 mL of Accutase (Innovative Cell Technologies, San Diego, Calif.) to the flask and then incubating at 37° C. for 5 minutes. Detached cells were then recovered by the addition of 40 mL of CHO-serum-free media supplemented with 25 mM HEPES, and rocked gently in a 50 mL conical tube for 20 minutes prior to patch-clamp assay. After recovery, cells were pelleted by centrifugation at 1,000 RPM for 1 minute in a compact bench top centrifuge; recovery media was aspirated and cells were resuspended in external recording solution (150 mM NaCl, 5 mM KCl, 2 mM CaCl2, 1 mM MgCl2, 10 mM HEPES, 12 mM dextrose) to a density of 5.0×10^6 cells/mL. The cell suspension was added to the cell inlet wells on an IonFlux HT population patch plate which had previously been rinsed and primed with deionized H2O. Test compounds were serially diluted in DMSO and then resuspended to the final test concentration in external recording solution, with, or without 40 μM acetylcholine added to the external recording solution; test compounds were then transferred to the IonFlux HT population patch plate. Internal recording solution (110 mM TrisPO4, 28 mM TrisBase, 0.1 mM CaCl2, 2 mM MgCl2, 11 mM EGTA, 4 mM MgATP) was added to the internal recording solution inlet wells on the IonFlux HT patch plate previously loaded with cells and test compounds, and the plate loaded into the IonFlux HT instrument. A protocol was executed on the IonFlux HT to trap the cells, break into the cells, and establish the whole-cell recording configuration; cells were voltage-clamped at a holding potential of −60 mV for the duration of the experiment, all experiments were conducted at room temperature, and the IonFlux HT injection pressure was 8 psi for solution applications. Upon establishing the whole-cell configuration, external recording solution was perfused into the recording chambers for 120 seconds and then 40 μM acetylcholine was applied for 1 second and immediately washed off with external recording solution for 60 seconds. […]
For orientation: In patch-clamp work, channel activity is measured electrically.

Setting [1] is: HEK cell line stably expressing human α7 and human RIC-3, 40 μM acetylcholine, holding potential −60 mV, room temperature, read-out: α7 nAChR EC50.
The mark [2] stands for this setting: automated patch-clamp electrophysiology functional assay (Assay A), potency class by EC50, read-out: α7 nAChR Potency.

T1 sequence (P36544 23-502): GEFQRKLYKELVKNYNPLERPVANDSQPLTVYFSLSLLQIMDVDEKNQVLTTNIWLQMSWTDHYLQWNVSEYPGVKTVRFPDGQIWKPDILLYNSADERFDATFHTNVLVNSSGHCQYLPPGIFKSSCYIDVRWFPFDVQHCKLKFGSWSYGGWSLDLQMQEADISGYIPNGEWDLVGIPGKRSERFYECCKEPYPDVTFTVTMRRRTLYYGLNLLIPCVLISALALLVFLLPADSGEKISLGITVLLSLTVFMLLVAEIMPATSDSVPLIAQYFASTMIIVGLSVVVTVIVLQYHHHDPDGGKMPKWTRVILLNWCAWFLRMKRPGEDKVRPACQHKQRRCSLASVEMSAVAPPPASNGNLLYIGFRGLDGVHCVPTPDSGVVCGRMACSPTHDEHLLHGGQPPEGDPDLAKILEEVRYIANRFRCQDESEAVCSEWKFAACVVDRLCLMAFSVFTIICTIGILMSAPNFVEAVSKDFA

For `CC1(C)[C@@H](c2ccc(S(N)(=O)=O)cc2)[C@@H]1c1noc(-c2ccncc2C(F)(F)F)n1` [Example I20], the EC50 under setting [1] came to 0.45 µM.
With `CC1(C)[C@H](c2ccc(S(N)(=O)=O)cc2)[C@H]1c1nc(C2CC2)co1` [Example J5], under setting [2], the EC50 lay within 0.5 to 5 µM.
With `CC1(C)[C@@H](c2ccc(S(N)(=O)=O)cc2)[C@@H]1c1nc(-c2cccc(F)c2)cs1` [Example K10], the EC50 under setting [1] worked out at 3.9 µM and the EC50 under setting [2] was 0.5 to 5 µM.
Taken in the same sequence, the figures for `CC(C)c1csc([C@H]2[C@H](c3ccc(S(N)(=O)=O)cc3)C2(C)C)n1` [Example K11] were 1.1 µM and 0.5 to 5 µM.
In the case of `NS(=O)(=O)c1ccc([C@@H]2C[C@H]2c2ncc(C3CCCC3)s2)cc1` [Example K15], the EC50 under setting [2] lay in the range of 0.1 to 0.5 µM.
Consider `CC1(C)[C@H](c2ccc(S(N)(=O)=O)cc2)[C@H]1c1nnc(C2CCCCC2)s1` [Example F7], for which the EC50 under setting [2] is 0.5 to 5 µM.
Same read-out and setting: next, `CC(Oc1cccc(Cl)c1)c1nc(C2C(c3ccc(S(N)(=O)=O)cc3)C2(C)C)no1` (centres unmarked) [Example I2]: not above 0.1 µM.
Take `CC1(C)[C@H](c2ccc(S(N)(=O)=O)cc2)[C@H]1c1nc(-c2ccc(F)cc2C(F)(F)F)no1` [Example A2]: the EC50 runs as follows: under setting [1], 1.7 µM; under setting [2], 0.5 to 5 µM.
Taken in the same sequence, the figures for `Cc1cc(S(N)(=O)=O)ccc1[C@H]1C(c2nc(-c3ccccc3)no2)C1(C)C` (single isomer, unassigned; enantiomer a) [Example 38, 4-[trans-2,2-Dimethyl-3-(3-phenyl-1,2,4-oxadiazol-5-yl)cyclopropyl]-3-methylbenzenesulfonamide, enantiomer A] were 4.3 µM and 0.5 to 5 µM.
Regarding `NS(=O)(=O)c1ccc(C2C(c3cnc(-c4ccccc4)o3)C2(F)F)cc1` (racemic) [Example M1], under setting [2], the EC50 lay within 0.5 to 5 µM.
For the compound `NS(=O)(=O)c1ccc(C2C(c3nc(-c4ccccc4)no3)C2(Cl)Cl)cc1` (racemic) [Example M9], the EC50 under setting [1] was 0.14 µM and the EC50 under setting [2] was in the range of 0.1 to 0.5 µM.
For the compound `CC1(c2nc(-c3ccc(F)cc3F)no2)CC1c1ccc(S(N)(=O)=O)cc1` (centres unmarked) [Example E3], the EC50 was 6.9 µM under setting [1] and 5 to 50 µM under setting [2].
Take `Cc1cccc(F)c1-c1noc([C@@H]2C[C@H]2c2ccc(S(N)(=O)=O)cc2)n1` [Example C11]: under setting [2], the EC50 was in the range of 0.1 to 0.5 µM.
On to `Cc1cc(C2C(c3nc(-c4ccccc4)no3)C2(C)C)ccc1S(N)(=O)=O` (single isomer, unassigned) [Example M8], for which, under setting [2], the EC50 fell in the range of 5 to 50 µM.
Consider `CC1(c2ccc(S(N)(=O)=O)cc2)CC1c1nc(-c2ccc(F)cc2F)no1` (centres unmarked) [Example E4], for which the EC50 runs as follows: under setting [1], 1.7 µM; under setting [2], 0.5 to 5 µM.
For `CC1(C)[C@@H](c2ccc(S(N)(=O)=O)cc2)[C@@H]1c1nc(-c2cc(F)ccc2F)co1` [Example K2] the same measures were 1.6 µM and 0.5 to 5 µM.
In the case of “4-{(1S,3S)-3-[2-(3-Fluorophenyl)-1-methyl-1H-imidazol-4-yl]-2,2-dimethylcycloproyl}benzenesulfonamide [Example 35]”, the EC50 is 4.4 µM under setting [1] and 0.5 to 5 µM under setting [2].
